Data as given in patent US6967213B2, “Isothiazole derivatives, process for the preparation thereof, and pharmaceutical composition including the same” (CJ Corp., priority 2003, dated 2005).

Assays:
cyclooxygenase-1 = target: T1, cyclooxygenase-1 (Homo sapiens, UniProt P23219); test: Inhibitive effects against cyclooxygenase-1 using U-937 (PGE2 quantitation); format: cell-based; details: U-937 cells, arachidonic acid substrate
T1 construct: A cultured U-937 (humane lymphoma cell with Deposit No. 21593, obtained from Korean cell line bank) was centrifuged to collect the pellet; endogenous in cells; host or cells: U-937 (Korean cell line bank, Deposit No. 21593)
T1 sequence (P23219 24-599): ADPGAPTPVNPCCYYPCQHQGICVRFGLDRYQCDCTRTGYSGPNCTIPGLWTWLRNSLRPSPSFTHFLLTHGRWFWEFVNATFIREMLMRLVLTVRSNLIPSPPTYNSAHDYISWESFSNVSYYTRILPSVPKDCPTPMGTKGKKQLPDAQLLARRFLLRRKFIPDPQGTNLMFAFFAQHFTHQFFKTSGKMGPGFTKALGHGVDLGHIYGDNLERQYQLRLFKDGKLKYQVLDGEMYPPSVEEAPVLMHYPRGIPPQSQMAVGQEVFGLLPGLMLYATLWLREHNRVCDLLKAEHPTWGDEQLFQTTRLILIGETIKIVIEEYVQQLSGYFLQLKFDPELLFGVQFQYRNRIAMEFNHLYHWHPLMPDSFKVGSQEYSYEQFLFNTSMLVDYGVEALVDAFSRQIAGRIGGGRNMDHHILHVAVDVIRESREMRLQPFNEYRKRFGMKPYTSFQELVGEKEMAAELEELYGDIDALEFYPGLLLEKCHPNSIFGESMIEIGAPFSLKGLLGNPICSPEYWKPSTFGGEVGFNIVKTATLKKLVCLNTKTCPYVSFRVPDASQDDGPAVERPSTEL
Procedure: Then, the pellet was diluted with 1×HBSS(Hank's balanced salt solution) at the concentration of 1×10^6 cells/ml, and 1 ml of them was transferred into each of 12-well plates.
Arachidonic acid as a substrate was dissolved in ethanol to prepare a stock solution with a concentration of 10 mM, followed by diluting with 1×HBSS to prepare the solution of 1 mM. 10 μl of 1 mM Arachidonic acid solution was added to each of the treated wells and the mixture was cultured at 37° C. in CO2 incubator for 30 minutes. The cell solution of each well was collected in the centrifuge tube and centrifuged at 4° C., for 5 minutes at 10,000 rpm. As PGE2 existed in the supernatant separated from collected cell, the concentration of PGE2 was quantitated by using monoclonal kit from Cayman Chemicals, and the concentration of samples and DMSO vehicle were compared to estimate the inhibition ratio (%) of each compound against cyclooxygenase-1. Ultimately, the inhibition effect against the cyclooxygenase-1 enzyme was obtained from the result.

cyclooxygenase-2 = target: T2, cyclooxygenase-2 (Mus musculus, UniProt Q05769); test: Inhibitive effects against cyclooxygenase-2 using Raw 264.7 (interferon/LPS-induced PGE2, EIA); format: cell-based; details: Raw 264.7 cells, interferon + LPS, 18 hours
T2 construct: After seeding 2×10^6 cells of Raw 264.7 cell (obtained from Korean cell line bank, Deposit No. 40071) into each of 12-well plates; endogenous in cells; host or cells: Raw 264.7 (Korean cell line bank, Deposit No. 40071), aspirin-pretreated, induced with interferon and LPS
T2 sequence (Q05769 18-604): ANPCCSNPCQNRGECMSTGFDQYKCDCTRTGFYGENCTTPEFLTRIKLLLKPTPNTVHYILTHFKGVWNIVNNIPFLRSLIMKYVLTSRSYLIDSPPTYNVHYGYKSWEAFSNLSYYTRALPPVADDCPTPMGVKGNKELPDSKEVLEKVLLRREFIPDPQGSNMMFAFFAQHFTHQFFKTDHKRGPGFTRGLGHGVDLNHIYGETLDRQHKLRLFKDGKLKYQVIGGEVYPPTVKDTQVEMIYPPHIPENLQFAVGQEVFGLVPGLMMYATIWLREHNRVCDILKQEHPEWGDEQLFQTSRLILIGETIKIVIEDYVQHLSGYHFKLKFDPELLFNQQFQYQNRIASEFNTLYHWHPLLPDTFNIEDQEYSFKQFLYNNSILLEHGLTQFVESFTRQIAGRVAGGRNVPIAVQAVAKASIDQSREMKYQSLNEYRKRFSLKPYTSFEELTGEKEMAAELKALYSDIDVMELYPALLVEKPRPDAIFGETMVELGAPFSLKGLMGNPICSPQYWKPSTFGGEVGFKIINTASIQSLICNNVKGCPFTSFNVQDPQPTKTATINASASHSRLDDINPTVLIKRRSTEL
Procedure: In addition, the samples were treated with 100 units/ml of interferon ? and 100 ng/ml of lipopolysaccharide(LPS), and cultured for 18 hours. Then, the media was transferred to other test tubes and PGE 2 was quantitated by using EIA kit (Cayman Chemicals).
The % inhibition was calculated as follows, and the results were described in Table 1.
% inhibition={(PGE2 concentration compensated with interferon ? and LPS-PGE2 concentration compensated with analysis sample)/(PGE2 concentration compensated with interferon ? and LPS)}×100

Question: `Cc1snc(-c2ccc(S(C)(=O)=O)cc2)c1-c1ccc(F)cc1` [Example 1, 4-(4-fluorophenyl)-3-(4-methanesulfonyl)-5-methyl-isothiazole] was tested. Which “Inhibitory effects of cyclooxygenase (COX): COX-1 (10 μM)” value (from here on “Inhibitory effects … (10 μM)”) (cyclooxygenase-1) did it give?
Answer: The value was 29.8 % inhibition.

Question: What about the “Inhibitory effects of cyclooxygenase (COX): COX-2 (30 nM)” value (“Inhibitory effects … (30 nM)” for short) (cyclooxygenase-2) of the same compound?
Answer: Its value is 63.7 % inhibition.

Question: Which results are given for `Cc1snc(-c2ccccc2)c1-c1ccc(S(N)(=O)=O)cc1` [Example 2, 4-(5-methyl-3-phenyl-isothiazole-4-yl)-benzenesulfonamide]?
Answer: Inhibitory effects of cyclooxygenase (COX): COX-1 (10 μM) (cyclooxygenase-1): 35.5 % inhibition; Inhibitory effects of cyclooxygenase (COX): COX-2 (30 nM) (cyclooxygenase-2): 60.2 % inhibition

Question: With `Cc1snc(-c2ccc(Br)cc2)c1-c1ccc(S(N)(=O)=O)cc1` [Example 3, 4-[3-(4-bromophenyl)-5-methyl-isothiazole-4-yl]-benzenesulfonamide] as the compound, how does the “Inhibitory effects … (10 μM)” value (cyclooxygenase-1) read?
Answer: The value was 38.8 % inhibition.

Question: What about the “Inhibitory effects … (30 nM)” value (cyclooxygenase-2) of the same compound?
Answer: The value was 58.5 % inhibition.

Question: How did the “Inhibitory effects … (10 μM)” value (cyclooxygenase-1) turn out when `COc1ccc(-c2nsc(C)c2-c2ccc(S(N)(=O)=O)cc2)cc1` [Example 4, 4-[3-(4-methoxyphenyl)-5-methyl-isothiazole-4-yl]-benzenesulfonamide] was run?
Answer: The value was 79.5 % inhibition.

Question: And the “Inhibitory effects … (30 nM)” value (cyclooxygenase-2)?
Answer: The value was 67.7 % inhibition.

Question: With `Cc1snc(-c2ccc(F)cc2)c1-c1ccc(S(N)(=O)=O)cc1` [Example 5, 4-[3-(4-fluorophenyl)-5-methyl-isothiazole-4-yl]-benzenesulfonamide] as the compound, how does the “Inhibitory effects … (10 μM)” value (cyclooxygenase-1) read?
Answer: Its value is 77.8 % inhibition.

Question: What about the “Inhibitory effects … (30 nM)” value (cyclooxygenase-2) of the same compound?
Answer: Its value is 72.3 % inhibition.

Question: Which “Inhibitory effects … (10 μM)” value (cyclooxygenase-1) does the source give for `Cc1snc(-c2ccccc2)c1-c1ccc(S(C)(=O)=O)cc1` [Example 6, 4-(4-methanesulfonylphenyl)-5-methyl-3-phenyl-isothiazole] here?
Answer: Its value is 56.4 % inhibition.

Question: What about the “Inhibitory effects … (30 nM)” value (cyclooxygenase-2) of the same compound?
Answer: Its value is 69.0 % inhibition.

Question: Which “Inhibitory effects … (10 μM)” value (cyclooxygenase-1) does the source give for `Cc1snc(-c2ccc(Br)cc2)c1-c1ccc(S(C)(=O)=O)cc1` [Example 7, 3-(4-bromophenyl)-4-(4-methanesulfonylphenyl)-5-methyl-isothiazole] here?
Answer: Its value is 45.7 % inhibition.

Question: And the “Inhibitory effects … (30 nM)” value (cyclooxygenase-2)?
Answer: The value was 65.6 % inhibition.

Question: `COc1ccc(-c2nsc(C)c2-c2ccc(S(C)(=O)=O)cc2)cc1` [Example 8, 3-(4-methoxyphenyl)-4-(4-methanesulfonylphenyl)-5-methyl-isothiazole] was tested. Which “Inhibitory effects … (10 μM)” value (cyclooxygenase-1) did it give?
Answer: Its value is 80.1 % inhibition.

Question: What about the “Inhibitory effects … (30 nM)” value (cyclooxygenase-2) of the same compound?
Answer: Its value is 76.4 % inhibition.

Question: For `Cc1snc(-c2ccc(F)cc2)c1-c1ccc(S(C)(=O)=O)cc1` [Example 9, 3-(4-fluorophenyl)-4-(4-methanesulfonyl)-5-methyl-isothiazole], which “Inhibitory effects … (10 μM)” value (cyclooxygenase-1) is on record?
Answer: Its value is 67.2 % inhibition.

Question: And the “Inhibitory effects … (30 nM)” value (cyclooxygenase-2)?
Answer: Its value is 65.1 % inhibition.
